Among the data in ChEMBL document CHEMBL1131969, “Quinoline-2,4-dicarboxylic acids: synthesis and evaluation as inhibitors of the glutamate vesicular transport system” (Bioorg Med Chem Lett, 1999) are Vmax and Km values, retold here.

Data set [1] is described as follows: Compound was evaluated for the kinetic parameter Vmax (maximum velocity). The data set is classed as ADME.
Data set [2] in a line: Compound was evaluated for the kinetic parameter (Km). In kind it is ADME.

Molecules are shown by their SMILES.

`N[C@@H](CCC(=O)O)C(=O)O` [GLUTAMIC ACID]: in data set [1], the maximum rate (Vmax) (commonly the top rate of the reaction or transport when substrate is in excess) is 18.3 pM/min/mg. In addition, the Michaelis constant (Km) (usually the substrate concentration at which the rate is half of its maximum) in data set [2] amounted to 1.65 µM.
